Data published in patent publication US8497276B2, “Substituted indolo-piperidine compounds” (ArQule, Inc., priority 2009, dated 2013).

Key:
Tec kinase = molecular target: T1, Tec kinase (Homo sapiens, UniProt P42680); assay: Tec Kinase Activity Assay; type: biochemical; details: 75 μM ATP, Pyk-2 substrate; compound concentration not given
T1 sequence (P42680 1-631): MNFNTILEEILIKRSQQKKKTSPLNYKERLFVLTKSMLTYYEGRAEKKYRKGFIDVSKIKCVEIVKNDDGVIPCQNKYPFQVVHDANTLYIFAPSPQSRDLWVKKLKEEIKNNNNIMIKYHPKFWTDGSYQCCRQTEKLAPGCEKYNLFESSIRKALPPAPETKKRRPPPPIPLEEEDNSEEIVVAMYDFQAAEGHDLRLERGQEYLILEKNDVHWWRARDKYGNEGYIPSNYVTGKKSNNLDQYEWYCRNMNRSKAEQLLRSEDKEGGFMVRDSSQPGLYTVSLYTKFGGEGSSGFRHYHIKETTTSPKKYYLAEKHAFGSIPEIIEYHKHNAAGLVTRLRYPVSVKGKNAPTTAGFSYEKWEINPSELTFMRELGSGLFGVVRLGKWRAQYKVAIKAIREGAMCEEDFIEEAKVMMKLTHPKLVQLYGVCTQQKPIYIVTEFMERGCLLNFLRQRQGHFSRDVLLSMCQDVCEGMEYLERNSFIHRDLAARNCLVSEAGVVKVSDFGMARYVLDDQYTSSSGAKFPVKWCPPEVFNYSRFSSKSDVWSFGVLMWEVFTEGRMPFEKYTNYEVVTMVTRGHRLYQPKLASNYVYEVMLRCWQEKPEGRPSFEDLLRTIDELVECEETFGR
Description: The disclosed compounds were assayed for their ability to inhibit the activity of Tec kinase. Nunc Maxisorb plates were coated with streptavidin by overnight incubation with 100 μl per well of 1 μg/ml Streptavidin in DPBS. Prior to the start of the experiment, the plates were washed with TBST (3×200 μl) and blocked for at least 1 hour by adding 150 μl of 5% BSA/TBST. The plates were then washed with TBST (3×200 μl/well) and left dry immediately before the capture step.
The disclosed test compounds and controls (Staurosporine and Sutent) were prepared using the following assay buffer (50 mM Tris-HCl, 0.02 mg/ml BSA, 10 mM MgCl2, 0.1 mM Na3VO4, 1 mM EGTA, 75 μM ATP, 0.01% NP-40, 2 mM DTT in 10% glycerol/water) at 3× desired final concentration. 20 μl of the test compounds (or control) and 20 μl TEC (0.25 ng/μl) were rapidly added to a reaction plate. The plate was incubated for 30 minutes. 20 μl of Pyk-2 (0.5 ng/μl) was then added to the reaction plate. The plate was incubated at room temperature for two hours.
50 μl was transferred from the reaction plate to the streptavidin coated plate. The capture plate was incubated at room temperature for 30 minutes then washed with TBST 6 times. 100 μl/well of Cell Signaling anti-phospho tyrosine was added to the capture plate at a dilution of 1:3000 in 2% BSA/TBST. The plate was incubated for one hour at room temperature then washed with TBST 6 times. 100 μl/well of alkaline phosphatase tagged goat anti-mouse antibody was added to the capture plate at a dilution of 1:4000 in 2% BSA/TBST. The plate was incubated for one hour at room temperature then washed with TBST 6 times.
The fluorescent readout was initiated by the addition of 100 μl/well of Attophos reagent (6 mg/10 ml) and the reading was done on the Perkin Elmer Envision system.

DLD-1 = assay: MTS Assay (cell growth inhibition), DLD-1; type: cell-based; details: DLD-1 cells, 72 hours with test compound; concentration not given
Description: (§1) Cells were maintained at 37° C., 5% CO2 in DMEM media supplemented with 1% fetal bovine serum, penicillin/streptomycin and fungizone (Invitrogen). Cells were seeded into 96-well tissue culture plates at 3000 per well and cultured at 37° C. for 18 hours. Test compounds were dissolved and diluted to 300× in DMSO then diluted 1:40 in DMEM. Cells were incubated with test compounds for 72 hours followed by incubation with tetrazolium compound (3-(4,5-dimethylthiazol-2-yl)-5-(3-carboxymethoxyphenyl)-2-(4-sulfophenyl)-2H-tetrazolium, inner salt; MTS) and the electron coupling reagent, phenazine methosulfate (PMS) for 4 hours. […] The ability of compounds to inhibit cell growth in this assay is correlated with the reduction of dehydrogenase enzyme activity found in metabolically active cells. The measurement of the absorbance of the formazan was assessed using an ENVISION™ (Perkin Elmer) microplate reader at 492 nm. The calculated IC50 value is the concentration of the test compound that causes a 50% decrease in the absorbance.

Kato III = assay: MTS Assay (cell growth inhibition), Kato III; type: cell-based; details: Kato III cells, 72 hours with test compound; concentration not given
Description: as §1

MDA-MB 231 = assay: MTS Assay (cell growth inhibition), MDA-MB 231; type: cell-based; details: MDA-MB 231 cells, 72 hours with test compound; concentration not given
Description: as §1

NCI-H1299 = assay: MTS Assay (cell growth inhibition), NCI-H1299; type: cell-based; details: NCI-H1299 cells, 72 hours with test compound; concentration not given
Description: as §1

PACA-2 = assay: MTS Assay (cell growth inhibition), PACA-2; type: cell-based; details: PACA-2 cells, 72 hours with test compound; concentration not given
Description: as §1

PC-3 = assay: MTS Assay (cell growth inhibition), PC-3; type: cell-based; details: PC-3 cells, 72 hours with test compound; concentration not given
Description: as §1

Compound | Biochemical IC50 (% inhibition) Tec (Tec kinase) | MTS cell kill data (% inhibition) DLD-1 (DLD-1) | MTS cell kill data (% inhibition) Kato III (Kato III) | MTS cell kill data (% inhibition) MDA-MB 231 (MDA-MB 231) | MTS cell kill data (% inhibition) NCI-H1299 (NCI-H1299) | MTS cell kill data (% inhibition) PACA-2 (PACA-2) | MTS cell kill data (% inhibition) PC-3 (PC-3)
Cc1cccc(C2c3[nH]c4ccccc4c3CCN2c2ncnc3[nH]cnc23)c1 (stereo not drawn) [Compound 11, 1-(3-methylphenyl)-2-(9H-purin-6-yl)-2,3,4,9-tetrahydro-1H-beta-carboline] | C (C = <50% inhibition) | A (A = 80-100% inhibition) | A (A = 80-100% inhibition) | B (B = 50-79% inhibition) | A (A = 80-100% inhibition) | B (B = 50-79% inhibition) | C (C = <50% inhibition)
Fc1c(Cl)cccc1C1c2[nH]c3ccccc3c2CCN1c1ncnc2[nH]cnc12 (stereo not drawn) [Compound 3, 1-(3-chloro-2-fluorophenyl)-2-(9H-purin-6-yl)-2,3,4,9-tetrahydro-1H-beta-carboline] | C (C = <50% inhibition) | B (B = 50-79% inhibition) | B (B = 50-79% inhibition) | C (C = <50% inhibition) | B (B = 50-79% inhibition) | C (C = <50% inhibition) | C (C = <50% inhibition)
Fc1ccc(C2c3[nH]c4ccccc4c3CCN2c2ncnc3[nH]ccc23)cc1 (stereo not drawn) [Compound 4, 1-(4-fluorophenyl)-2-(7H-pyrrolo[2,3-d]pyrimidin-4-yl)-2,3,4,9-tetrahydro-1H-beta-carboline] | B (B = 50-79% inhibition) | B (B = 50-79% inhibition) | B (B = 50-79% inhibition) | C (C = <50% inhibition) | B (B = 50-79% inhibition) | B (B = 50-79% inhibition) | C (C = <50% inhibition)
Fc1c(Cl)cccc1C1c2[nH]c3ccccc3c2CCN1c1ncnc2[nH]ccc12 (stereo not drawn) [Compound 2, 1-(3-chloro-2-fluorophenyl)-2-(7H-pyrrolo[2,3-d]pyrimidin-4-yl)-2,3,4,9-tetrahydro-1H-beta-carboline] | C (C = <50% inhibition) | A (A = 80-100% inhibition) | A (A = 80-100% inhibition) | A (A = 80-100% inhibition) | A (A = 80-100% inhibition) | A (A = 80-100% inhibition) | A (A = 80-100% inhibition)
c1ccc(CC2c3[nH]c4ccccc4c3CCN2c2ncnc3[nH]ncc23)cc1 (stereo not drawn) [Compound 17, 1-benzyl-2-(1H-pyrazolo[3,4-d]pyrimidin-4-yl)-2,3,4,9-tetrahydro-1H-beta-carboline] | C (C = <50% inhibition) | B (B = 50-79% inhibition) | B (B = 50-79% inhibition) | C (C = <50% inhibition) | B (B = 50-79% inhibition) | B (B = 50-79% inhibition) | C (C = <50% inhibition)

Further lines, with some results ahead:

Biochemical IC50 (% inhibition) Tec (Tec kinase) | Compound | MTS cell kill data (% inhibition) DLD-1 (DLD-1) | MTS cell kill data (% inhibition) Kato III (Kato III) | MTS cell kill data (% inhibition) MDA-MB 231 (MDA-MB 231) | MTS cell kill data (% inhibition) NCI-H1299 (NCI-H1299) | MTS cell kill data (% inhibition) PACA-2 (PACA-2) | MTS cell kill data (% inhibition) PC-3 (PC-3)
C (C = <50% inhibition) | c1ccc(C2c3[nH]c4ccccc4c3CCN2c2ncnc3[nH]cnc23)cc1 (stereo not drawn) [Compound 25, 1-phenyl-2-(9H-purin-6-yl)-2,3,4,9-tetrahydro-1H-beta-carboline] | B (B = 50-79% inhibition) | B (B = 50-79% inhibition) | C (C = <50% inhibition) | B (B = 50-79% inhibition) | B (B = 50-79% inhibition) | C (C = <50% inhibition)
B (B = 50-79% inhibition) | COc1ccc(C2c3[nH]c4ccccc4c3CCN2c2ncnc3[nH]ncc23)cc1 (stereo not drawn) [Compound 31, 1-(4-methoxyphenyl)-2-(1H-pyrazolo[3,4-d]pyrimidin-4-yl)-2,3,4,9-tetrahydro-1H-beta-carboline] | B (B = 50-79% inhibition) | B (B = 50-79% inhibition) | B (B = 50-79% inhibition) | B (B = 50-79% inhibition) | B (B = 50-79% inhibition) | C (C = <50% inhibition)
B (B = 50-79% inhibition) | c1ccc(CCC2c3[nH]c4ccccc4c3CCN2c2ncnc3[nH]cnc23)cc1 (stereo not drawn) [Compound 27, 1-(2-phenylethyl)-2-(9H-purin-6-yl)-2,3,4,9-tetrahydro-1H-beta-carboline] | A (A = 80-100% inhibition) | A (A = 80-100% inhibition) | A (A = 80-100% inhibition) | A (A = 80-100% inhibition) | A (A = 80-100% inhibition) | A (A = 80-100% inhibition)
C (C = <50% inhibition) | c1ccc(C2c3[nH]c4ccccc4c3CCN2c2ncnc3[nH]ncc23)cc1 (stereo not drawn) [Compound 26, 1-phenyl-2-(1H-pyrazolo[3,4-d]pyrimidin-4-yl)-2,3,4,9-tetrahydro-1H-beta-carboline] | B (B = 50-79% inhibition) | B (B = 50-79% inhibition) | C (C = <50% inhibition) | B (B = 50-79% inhibition) | B (B = 50-79% inhibition) | C (C = <50% inhibition)
